Measurements published in patent publication US20230146795A1, “ENHANCEMENT OF ANTI-TUMOR ACTIVITY OF SHP2 INHIBITOR PYRIMIDINONE IN COMBINATION WITH NOVEL CANCER MEDICINES IN CANCERS” (TAIHO PHARMACEUTICAL CO., LTD., priority 2020, published 2023).

Tests used:
Assay type in all cases: cell-based
MKN45 = assay: Anti-proliferation assay (CellTiter-Glo 2.0), combination index, MKN45
Method: (§1) Cell lines were obtained from ATCC or Health Science Research Resources Bank.
(§2) Each cell lines were collected by ordinary method, then suspended in indicated medium containing 10% fetal bovine serum in table 3. The number of cells seeded per well was set to 500 cells/20 μL. […] The concentration of each anti-cancer reagents set to 8 concentrations including 0 nM. After adding the medicine to the cells, the cells were further incubated at 37° C. for 3 days under 5% CO2. Cell survival rates were calculated by adding 20 μL of CellTiter-Glo(registered trademark) 2. 0 (Promega) solution to each well, incubating the cells at room temperature for 10 minutes, and then measuring the chemiluminescence intensity of each well using a plate reader (ARVO).
(§3) A combination index (CI) value at each combined concentration of the medicines was determined.

NCI-H358 = assay: Anti-proliferation assay (CellTiter-Glo 2.0), combination index, NCI-H358
Method: as §1, §2, §3

RT4 = assay: Anti-proliferation assay (CellTiter-Glo 2.0), combination index, RT4
Method: as §1, §2, §3

[1] = Compound 1 13.7 + combination drug 123 nmol/L (1:9)
[2] = Compound 1 41.2 + combination drug 370 nmol/L (1:9)
[3] = Compound 1 123 + combination drug 1110 nmol/L (1:9)
[4] = Compound 1 370 + combination drug 3330 nmol/L (1:9)
[5] = Compound 1 4.57 + combination drug 41.2 nmol/L (1:9)
[6] = Compound 1 1110 + combination drug 10000 nmol/L (1:9)
[7] = Compound 1:combination drug molar ratio 1:9
[8] = Compound 1 123 + combination drug 370 nmol/L (1:3)
[9] = Compound 1 370 + combination drug 1110 nmol/L (1:3)
[10] = Compound 1 123 + combination drug 123 nmol/L (1:1)
[11] = Compound 1 370 + combination drug 370 nmol/L (1:1)
[12] = Compound 1 1110 + combination drug 1110 nmol/L (1:1)
[13] = Compound 1 3330 + combination drug 3330 nmol/L (1:1)
[14] = Compound 1 10000 + combination drug 10000 nmol/L (1:1)
[15] = Compound 1 123 + combination drug 41.2 nmol/L (1:0.3)
[16] = Compound 1 370 + combination drug 123 nmol/L (1:0.3)
[17] = Compound 1 1110 + combination drug 370 nmol/L (1:0.3)
[18] = Compound 1 3330 + combination drug 1110 nmol/L (1:0.3)
[19] = Compound 1 10000 + combination drug 3330 nmol/L (1:0.3)
[20] = Compound 1 4.57 nmol/L + Oxalliplatin 41.2 nmol/L, molar ratio 1:9
[21] = Compound 1 13.7 nmol/L + Oxalliplatin 370 nmol/L, molar ratio 1:27
[22] = Compound 1 41.2 nmol/L + Oxalliplatin 1110 nmol/L, molar ratio 1:27
[23] = Compound 1 123 nmol/L + Oxalliplatin 3330 nmol/L, molar ratio 1:27
[24] = Compound 1 370 nmol/L + Oxalliplatin 10000 nmol/L, molar ratio 1:27

`Cn1cnc2c(F)c(Nc3ccc(Br)cc3F)c(C(=O)NOCCO)cc21` [Binimetinib] showed a CI (MKN45; [1]) of 0.630, a Fa (MKN45; [1]) of 0.2390 and a CI (MKN45; [2]) of 0.387. It also gave a Fa (MKN45; [2]) of 0.5003, a CI (MKN45; [3]) of 0.212 and a Fa (MKN45; [3]) of 0.7765. For the same molecule, the CI (MKN45; [4]) was 0.360, the Fa (MKN45; [4]) was 0.8408 and the CI (NCI-H358; [5]) was 0.883. For the same molecule, the Fa (NCI-H358; [5]) was 0.0312, the CI (NCI-H358; [1]) was 0.223 and the Fa (NCI-H358; [1]) was 0.1821. The CI (NCI-H358; [2]) was 0.196, the Fa (NCI-H358; [2]) was 0.3954 and the CI (NCI-H358; [3]) was 0.222. It also gave a Fa (NCI-H358; [3]) of 0.6241, a CI (NCI-H358; [4]) of 0.349 and a Fa (NCI-H358; [4]) of 0.7635. It also gave a CI (NCI-H358; [6]) of 0.673 and a Fa (NCI-H358; [6]) of 0.8387.
In the case of `CC(C)Nc1cc(-c2c[nH]c(C(=O)N[C@H](CO)c3cccc(Cl)c3)c2)c(Cl)cn1` [Ulixertinib], the CI (RT4; [1]) is reported as 0.759, the Fa (RT4; [1]) is reported as 0.1321 and the CI (RT4; [2]) is reported as 0.310. It also gave a Fa (RT4; [2]) of 0.3352, a CI (RT4; [3]) of 0.330 and a Fa (RT4; [3]) of 0.4921. For the same molecule, the CI (RT4; [4]) was 0.622, the Fa (RT4; [4]) was 0.5670 and the “Description (combinatory effect by CI)” value (RT4; [7]) was “Synergy (0.3-0.7)”. It also gave a CI (MKN45; [8]) of 0.483, a Fa (MKN45; [8]) of 0.5887 and a CI (MKN45; [9]) of 0.644. The Fa (MKN45; [9]) was 0.7816, the “Description (combinatory effect by CI)” value (MKN45; Compound 1:combination drug molar ratio 1:3) was “Synergy (0.3-0.7)” and the CI (NCI-H358; [10]) was 0.709. For the same molecule, the Fa (NCI-H358; [10]) was 0.2823, the CI (NCI-H358; [11]) was 0.379 and the Fa (NCI-H358; [11]) was 0.5072. The CI (NCI-H358; [12]) was 0.237, the Fa (NCI-H358; [12]) was 0.7490 and the CI (NCI-H358; [13]) was 0.260. It also gave a Fa (NCI-H358; [13]) of 0.8778, a CI (NCI-H358; [14]) of 0.284 and a Fa (NCI-H358; [14]) of 0.9536.
Molecule `O=C(c1ccc(F)c(F)c1Nc1ccc(I)cc1F)N1CC(O)([C@@H]2CCCCN2)C1` [Cobimetinib] has a CI (MKN45; [1]) of 0.806, a Fa (MKN45; [1]) of 0.2247 and a CI (MKN45; [2]) of 0.459. For the same molecule, the Fa (MKN45; [2]) was 0.6457, the CI (MKN45; [3]) was 0.616 and the Fa (MKN45; [3]) was 0.8262. For the same molecule, the “Description (combinatory effect by CI)” value (MKN45; [7]) was “Synergy (0.3-0.7)”, the CI (NCI-H358; [15]) was 0.334 and the Fa (NCI-H358; [15]) was 0.3595. For the same molecule, the CI (NCI-H358; [16]) was 0.172, the Fa (NCI-H358; [16]) was 0.5769 and the CI (NCI-H358; [17]) was 0.165. For the same molecule, the Fa (NCI-H358; [17]) was 0.7439, the CI (NCI-H358; [18]) was 0.258 and the Fa (NCI-H358; [18]) was 0.8360. For the same molecule, the CI (NCI-H358; [19]) was 0.585 and the Fa (NCI-H358; [19]) was 0.8699.
With `O=C1[O][Pt]2([NH][C@@H]3CCCC[C@H]3[NH]2)[O]C1=O` [Oxalliplatin] the CI (RT4; [20]) was 0.932, the Fa (RT4; [20]) was 0.2140 and the CI (MKN45; [21]) was 0.571. The Fa (MKN45; [21]) was 0.4748, the CI (MKN45; [22]) was 0.322 and the Fa (MKN45; [22]) was 0.6458. It also gave a CI (MKN45; [23]) of 0.273, a Fa (MKN45; [23]) of 0.7808 and a CI (MKN45; [24]) of 0.216. It also gave a Fa (MKN45; [24]) of 0.9038, a CI (NCI-H358; [21]) of 0.699 and a Fa (NCI-H358; [21]) of 0.1376. The CI (NCI-H358; [22]) was 0.424, the Fa (NCI-H358; [22]) was 0.3478 and the CI (NCI-H358; [23]) was 0.623. For the same molecule, the Fa (NCI-H358; [23]) was 0.4795 and the Description (NCI-H358; combination effect, Compound 1 + Oxalliplatin, molar ratio 1:27) was “Synergy (0.3-0.7)”.
